The target of this assay is USP30 (Homo sapiens (Human), UniProt Q70CQ3). As to the kind of experiment: USP30 biochemical FP or FI IC50 assay. The following applies: read-out: IC50 range. The essentials:
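Human USP30 preincubated 30 min at room temperature with compound (8-point series, 100 µM top final) in Tris pH 7.5, Tween 20, BSA, 5 mM β-mercaptoethanol, in duplicate. FP format: 50 nM TAMRA-peptide–isopeptide-ubiquitin substrate, ex 540/em 590. FI format: 100 nM ubiquitin-rhodamine 110, ex 487/em 535. Both read at 0 and after 2 h at room temperature.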
Chain of USP30 (Q70CQ3 57-517): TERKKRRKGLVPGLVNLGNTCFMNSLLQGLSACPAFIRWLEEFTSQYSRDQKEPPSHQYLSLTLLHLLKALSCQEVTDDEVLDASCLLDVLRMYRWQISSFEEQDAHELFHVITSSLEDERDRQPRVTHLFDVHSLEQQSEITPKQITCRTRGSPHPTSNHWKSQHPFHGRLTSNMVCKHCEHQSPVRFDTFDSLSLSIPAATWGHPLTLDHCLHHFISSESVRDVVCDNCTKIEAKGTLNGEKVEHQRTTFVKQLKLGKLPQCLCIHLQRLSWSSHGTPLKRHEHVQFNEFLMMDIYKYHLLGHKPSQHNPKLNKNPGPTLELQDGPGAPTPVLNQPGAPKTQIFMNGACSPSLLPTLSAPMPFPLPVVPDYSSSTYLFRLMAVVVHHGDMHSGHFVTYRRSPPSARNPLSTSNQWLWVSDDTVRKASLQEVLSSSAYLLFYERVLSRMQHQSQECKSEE
In general, IC50 refers to the point on the concentration scale where inhibition reaches its midpoint. Take `N#CN1CC[C@@H](NC(=O)N2CCc3c([nH]c4ccccc34)C2)C1` [Example 139, (R)-N-(1-cyanopyrrolidin-3-yl)-1,3,4,9-tetrahydro-2H-pyrido[3,4-b]indole-2-carboxamide]: the IC50 is 100 to 1000 nM. The value for `C[C@@H]1CN(c2cc(C(=O)N[C@@H]3CCN(C#N)C3)c(F)cn2)C[C@H](C)O1` [Example 140, N-((R)-1-cyanopyrrolidin-3-yl)-2-((2S,6R)-2,6-dimethylmorpholino)-5-fluoroisonicotinamide] was 100 to 1000 nM; that for `N#CN1CC[C@@H](NC(=O)c2cc(N3Cc4ccccc4C3)ncc2F)C1` [Example 141, (R)-N-(1-cyanopyrrolidin-3-yl)-5-fluoro-2-(isoindolin-2-yl)isonicotinamide] was 100 to 1000 nM; that for `N#CN1CC[C@@H](NC(=O)c2ccc(Nc3ncccn3)c(F)c2)C1` [Example 142, (R)-N-(1-cyanopyrrolidin-3-yl)-3-fluoro-4-(pyrimidin-2-ylamino)benzamide] was less than 100 nM. On to `N#CN1CC[C@@H](NC(=O)c2ccc(N3CCCC3)cc2F)C1` [Example 143, (R)-N-(1-cyanopyrrolidin-3-yl)-2-fluoro-4-(pyrrolidin-1-yl)benzamide], for which the IC50 is less than 100 nM. Next, `N#CN1CC[C@@H](NC(=O)c2cc(F)c(N3CCCC3)cc2F)C1` [Example 145, (R)-N-(1-cyanopyrrolidin-3-yl)-2,5-difluoro-4-(pyrrolidin-1-yl)benzamide]: less than 100 nM.

Turning to `CO[C@@H]1CCN(c2ccc(C(=O)N[C@@H]3CCN(C#N)C3)c(F)c2)C1` [Example 146, N-((R)-1-cyanopyrrolidin-3-yl)-2-fluoro-4-((R)-3-methoxypyrrolidin-1-yl)benzamide], the 50% inhibitory concentration (IC50) is 100 to 1000 nM.

With `COc1cc(C(=O)N[C@@H]2CCN(C#N)C2)ccc1Nc1ncccn1` [Example 147, (R)-N-(1-cyanopyrrolidin-3-yl)-3-methoxy-4-(pyrimidin-2-ylamino)benzamide], the IC50 is 100 to 1000 nM. The value for `COc1cc(C(=O)N[C@@H]2CCN(C#N)C2)ccc1Nc1nccc(C)n1` [Example 148, (R)-N-(1-cyanopyrrolidin-3-yl)-3-methoxy-4-((4-methylpyrimidin-2-yl)amino)benzamide] was 100 to 1000 nM; that for `COc1ccnc(Nc2ccc(C(=O)N[C@@H]3CCN(C#N)C3)c(F)c2)n1` [Example 149, (R)-N-(1-cyanopyrrolidin-3-yl)-2-fluoro-4-((4-methoxypyrimidin-2-yl)amino)benzamide] was less than 100 nM.

For the molecule `Cc1cc(C(=O)N[C@@H]2CCN(C#N)C2)nn1C(C)c1ccccc1` (stereo partly drawn) [Example 150, N-((R)-1-cyanopyrrolidin-3-yl)-5-methyl-1-(1-phenylethyl)-1H-pyrazole-3-carboxamide], the concentration for half-maximal inhibition (IC50) was in the range of 100 to 1000 nM. Next, `Cc1cc(C(=O)N[C@@H]2CCN(C#N)C2)nn1Cc1ccccn1` [Example 151, (R)-N-(1-cyanopyrrolidin-3-yl)-5-methyl-1-(pyridin-2-ylmethyl)-1H-pyrazole-3-carboxamide]: 100 to 1000 nM; `N#CN1CC[C@@H](NC(=O)c2ccc(-c3ccnnc3)cc2F)C1` [Example 152, (R)-N-(1-cyanopyrrolidin-3-yl)-2-fluoro-4-(pyridazin-4-yl)benzamide]: 100 to 1000 nM; `CC(C)Cn1nc(C(=O)N[C@@H]2CCN(C#N)C2)c2ccc(-c3cnn(C)c3)cc21` [Example 153, (R)-N-(1-cyanopyrrolidin-3-yl)-1-isobutyl-6-(1-methyl-1H-pyrazol-4-yl)-1H-indazole-3-carboxamide]: 100 to 1000 nM.

Consider `Cc1noc(C)c1-c1ccc2c(C(=O)N[C@@H]3CCN(C#N)C3)nn(CC(C)C)c2c1` [Example 154, (R)-N-(1-cyanopyrrolidin-3-yl)-6-(3,5-dimethylisoxazol-4-yl)-1-isobutyl-1H-indazole-3-carboxamide], for which the IC50 is less than 100 nM. For `Cc1noc(C)c1-c1ccc2c(C(=O)N[C@@H]3CCN(C#N)C3)nn(CC3CC3)c2c1` [Example 155, (R)-N-(1-cyanopyrrolidin-3-yl)-1-(cyclopropylmethyl)-6-(3,5-dimethylisoxazol-4-yl)-1H-indazole-3-carboxamide], the IC50 is less than 100 nM. The value for `CN(C(=O)c1cn2cc(-c3cnn(C)c3)ccc2n1)[C@@H]1CCN(C#N)C1` [Example 156, (R)-N-(1-cyanopyrrolidin-3-yl)-N-methyl-6-(1-methyl-1H-pyrazol-4-yl)imidazo[, 2-a]pyridine-2-carboxamide] was 100 to 1000 nM; that for `CN(C(=O)c1cc2cc(-c3cnn(C)c3)ccc2[nH]1)[C@@H]1CCN(C#N)C1` [Example 157, (R)-N-(1-cyanopyrrolidin-3-yl)-N-methyl-5-(1-methyl-1H-pyrazol-4-yl)-1H-indole-2-carboxamide] was less than 100 nM. Next, `Cc1noc(C)c1-c1ccc2[nH]c(C(=O)N(C)[C@@H]3CCN(C#N)C3)nc2c1` [Example 158, (R)-N-(1-cyanopyrrolidin-3-yl)-6-(3,5-dimethylisoxazol-4-yl)-N-methyl-1H-benzo[d]imidazole-2-carboxamide]: 100 to 1000 nM. On to `Cn1cc(-c2ccn3c(C(=O)N[C@@H]4CCN(C#N)C4)cnc3c2)cn1` [Example 159, (R)-N-(1-cyanopyrrolidin-3-yl)-7-(1-methyl-1H-pyrazol-4-yl)imidazo[1,2-a]pyridine-3-carboxamide], for which the half-maximal inhibitory concentration (IC50) fell in the range of 100 to 1000 nM. On to `N#Cc1cccc(-c2ccn3c(C(=O)N[C@@H]4CCN(C#N)C4)cnc3c2)c1` [Example 160, (R)-7-(3-cyanophenyl)-N-(1-cyanopyrrolidin-3-yl)imidazo[1,2-a]pyridine-3-carboxamide], for which the concentration for half-maximal inhibition (IC50) was less than 100 nM. Turning to `Cc1cc(-c2ccn3c(C(=O)N(C)[C@@H]4CCN(C#N)C4)cnc3c2)ccn1` [Example 161, (R)-N-(1-cyanopyrrolidin-3-yl)-N-methyl-7-(2-methylpyridin-4-yl)imidazo[1,2-a]pyridine-3-carboxamide], the half-maximal inhibitory concentration (IC50) fell in the range of 100 to 1000 nM. Regarding `Cc1ccc(-c2ccn3c(C(=O)N(C)[C@@H]4CCN(C#N)C4)cnc3c2)cn1` [Example 162, (R)-N-(1-cyanopyrrolidin-3-yl)-N-methyl-7-(6-methylpyridin-3-yl)imidazo[1,2-a]pyridine-3-carboxamide], the half-inhibitory concentration (IC50) fell in the range of 100 to 1000 nM. The value for `Cc1nn(C)cc1-c1ccn2c(C(=O)N(C)[C@@H]3CCN(C#N)C3)cnc2c1` [Example 163, (R)-N-(1-cyanopyrrolidin-3-yl)-7-(1,3-dimethyl-1H-pyrazol-4-yl)-N-methylimidazo[1,2-a]pyridine-3-carboxamide] was 100 to 1000 nM. The value for `Cc1cc(-c2ccn3c(C(=O)N(C)[C@@H]4CCN(C#N)C4)cnc3c2)cc(C)n1` [Example 164, (R)-N-(1-cyanopyrrolidin-3-yl)-7-(2,6-dimethylpyridin-4-yl)-N-methylimidazo[1,2-a]pyridine-3-carboxamide] was 100 to 1000 nM; that for `CCN(C(=O)c1cnc2cc(-c3ccnc(C)c3)ccn12)[C@@H]1CCN(C#N)C1` [Example 165, (R)-N-(1-cyanopyrrolidin-3-yl)-N-ethyl-7-(2-methylpyridin-4-yl)imidazo[1,2-a]pyridine-3-carboxamide] was 100 to 1000 nM; that for `N#CN1CC[C@@H](NC(=O)c2cnc3cc(N4CCOCC4)ccn23)C1` [Example 166, (R)-N-(1-cyanopyrrolidin-3-yl)-7-morpholinoimidazo[1,2-a]pyridine-3-carboxamide] was 100 to 1000 nM.

Consider `N#Cc1cccc(-c2ccc3nc(C(=O)N[C@@H]4CCN(C#N)C4)c(F)n3c2)c1` [Example 167, (R)-6-(3-cyanophenyl)-N-(1-cyanopyrrolidin-3-yl)-3-fluoroimidazo[1,2-a]pyridine-2-carboxamide], for which the IC50 was less than 100 nM.

`CCn1cc(-c2ccc3nc(C(=O)N[C@@H]4CCN(C#N)C4)c(F)n3c2)cn1` [Example 169, (R)-N-(1-cyanopyrrolidin-3-yl)-6-(1-ethyl-1H-pyrazol-4-yl)-3-fluoroimidazo[1,2-a]pyridine-2-carboxamide]: the IC50 lay in the range of 100 to 1000 nM. `Cc1nn(C)cc1-c1ccc2nc(C(=O)N[C@@H]3CCN(C#N)C3)c(F)n2c1` [Example 170, (R)-N-(1-cyanopyrrolidin-3-yl)-6-(1,3-dimethyl-1H-pyrazol-4-yl)-3-fluoroimidazo[1,2-a]pyridine-2-carboxamide]: the IC50 was in the range of 100 to 1000 nM. For `N#CN1CC[C@@H](NC(=O)c2ccc(-c3ccn4nccc4n3)cc2F)C1` [Example 172, (R)-N-(1-cyanopyrrolidin-3-yl)-2-fluoro-4-(pyrazolo[1,5-a]pyrimidin-5-yl)benzamide], the IC50 was less than 100 nM. For the molecule `N#CN1CC[C@@H](NC(=O)c2ccc(-c3ccc(F)cc3)cn2)C1` [Example 173, (R)-N-(1-cyanopyrrolidin-3-yl)-5-(4-fluorophenyl)picolinamide], the IC50 is less than 100 nM. The value for `Cc1nn(C)cc1-c1ccc(C(=O)N[C@@H]2CCN(C#N)C2)nc1` [Example 179, (R)-N-(1-cyanopyrrolidin-3-yl)-5-(1,3-dimethyl-1H-pyrazol-4-yl)picolinamide] was 100 to 1000 nM; that for `Cc1nc(-c2ccc(C(=O)N[C@@H]3CCN(C#N)C3)nc2)cc(C(F)(F)F)n1` [Example 180, (R)-N-(1-cyanopyrrolidin-3-yl)-5-(2-methyl-6-(trifluoromethyl)pyrimidin-4-yl)picolinamide] was 100 to 1000 nM. As for `Cc1cc(-c2ccc(C(=O)N[C@@H]3CCN(C#N)C3)c(F)c2)nc(C)n1` [Example 181, (R)-N-(1-cyanopyrrolidin-3-yl)-4-(2,6-dimethylpyrimidin-4-yl)-2-fluorobenzamide], the IC50 was less than 100 nM.

In the case of `Cc1ncc(F)c(-c2ccc(C(=O)N[C@@H]3CCN(C#N)C3)c(F)c2)n1` [Example 182, (R)-N-(1-cyanopyrrolidin-3-yl)-2-fluoro-4-(5-fluoro-2-methylpyrimidin-4-yl)benzamide], the IC50 is less than 100 nM. For `N#CN1CC[C@@H](NC(=O)c2ccc(-c3ccnc(C(F)(F)F)n3)cc2F)C1` [Example 183, (R)-N-(1-cyanopyrrolidin-3-yl)-2-fluoro-4-(2-(trifluoromethyl)pyrimidin-4-yl)benzamide], the IC50 fell in the range of 100 to 1000 nM.

For the origin of these results see patent US10343992B2, “1-cyano-pyrrolidine compounds as USP30 inhibitors” (MISSION THERAPEUTICS LIMITED, priority 2015, dated 2019).
